Structures can show the parent of a compound that is named as a salt.
Columns and labels:
[1] = system: MYB; assay: HiBiT protein abundance assay, MYB HiBiT K562 cell line; format: cell-based, human; details: HiBiT K562 cell line, 24 hours, top dose 10 μM; read-out: Effect on protein abundance, MYB (IC50 category)
In short: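 Tagged-protein abundance measured by split-NanoBiT luminescence after lysis, following 24 h compound exposure (37° C; 10 μM top, 3-fold, 10 points; DMSO ≤0.25%) of HiBiT knock-in K562 cells. Percent response vs DMSO and unmodified-cell controls; 4-parameter logistic interpolation at 50% gave IC50.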

[2] = system: Target C; assay: RT-qPCR splicing assay panel, Target C canonical junction (CJ) mRNA; format: cell-based, human; details: Homo sapiens; Table 5 panel; canonical junction qPCR; compound concentration having 50% response in CJ decrease; read-out: Target C IC50 (decrease in CJ mRNA levels)
In short: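 Canonical exon-exon junction transcript levels measured by one-step RT-qPCR of cell lysates, normalized to a housekeeping gene (GAPDH, GUSB or PPIA). Cells used were A673 or K562, exposed for 24 h to compound in 11-point, 3-fold series from 10 uM, with final DMSO at or below 0.25%.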

| Compound | IC50 [1] | IC50 [2] |
| --- | --- | --- |
| Cc1cn2nc(-c3ccc4c(=O)n(C5CCNCC5)ccc4c3)cc(CC(=O)O)c2n1 [Compound 531, 2-[2-methyl-6-[1-oxo-2-(4-piperidyl)-6-isoquinolyl]imidazo[1,2-b]pyridazin-8-yl]acetic acid] | < 0.1 µM | 0.1 to 1 µM |
| Cn1cc2c(=O)n(-c3ccc4c(=O)n(C5CCNCC5)ccc4c3)ccc2n1 [Compound 530, 6-{2-methyl-4-oxopyrazolo[4,3-c]pyridin-5-yl}-2-(piperidin-4-yl)isoquinolin-1-one] | > 10 µM | > 10 µM |
| CNc1cc(-c2cc(C)c3nc(C)cn3n2)cc2ccn([C@H]3CCNC3)c(=O)c12 [Compound 647, 6-(2,8-dimethylimidazo[1,2-b]pyridazin-6-yl)-8-(methylamino)-2-[(3S)-pyrrolidin-3-yl]isoquinolin-1-one] | 1 to 10 µM | > 10 µM |
| Cc1cn2cc(-c3cc(F)c4c(=O)n([C@@H]5C[C@@H](C)N[C@@H](C)C5)ccc4c3)cc(F)c2n1 [Compound 642, 2-[(2S,6R)-2,6-dimethyl-4-piperidyl]-8-fluoro-6-(8-fluoro-2-methyl-imidazo[1,2-a]pyridin-6-yl)isoquinolin-1-one] | 0.1 to 1 µM | 1 to 10 µM |
| Cc1cn2nc(-c3ccc4c(=O)n(C5CCNCC5)ccc4c3)cc(Cc3nnn[nH]3)c2n1 [Compound 536, 6-[2-methyl-8-(1H-tetrazol-5-ylmethyl)imidazo[1,2-b]pyridazin-6-yl]-2-(4-piperidyl) isoquinolin-1-one] | > 10 µM | > 10 µM |
| Cc1cn2cc(-c3cc4ncn(C5CCNCC5)c(=O)c4cc3F)cc(F)c2n1 [Compound 586, 6-fluoro-7-{8-fluoro-2-methylimidazo[1,2-a]pyridin-6-yl}-3-(piperidin-4-yl)quinazolin-4-one] | 0.1 to 1 µM | 1 to 10 µM |
| Cc1cn2nc(-c3ccc4c(=O)n(C5CCNCC5)ccc4c3)cc(CC#N)c2n1 [Compound 520, 2-[2-methyl-6-[1-oxo-2-(4-piperidyl)-6-isoquinolyl]imidazo[1,2-b]pyridazin-8-yl]acetonitrile] | 0.1 to 1 µM | 1 to 10 µM |
| Cc1cn2nc(-c3ccc4c(=O)n(C5CCNCC5)ccc4c3)cc(C(=O)N(C)C)c2n1 [Compound 524, N, N, 2-trimethyl-6-[1-oxo-2-(4-piperidyl)-6-isoquinolyl]imidazo[1,2-b]pyridazine-8-carboxamide] | > 10 µM | > 10 µM |
| CNC(=O)c1cc(-c2ccc3c(=O)n(C4CCNCC4)ccc3c2)nn2cc(C)nc12 [Compound 518, N, 2-dimethyl-6-[1-oxo-2-(4-piperidyl)-6-isoquinolyl]imidazo[1,2-b]pyridazine-8-carboxamide] | 1 to 10 µM | > 10 µM |
| C=Cc1cn(C2CCNCC2)c(=O)c2c(F)cc(-c3cc(F)c4nc(C)cn4c3)cc12 [Compound 559, 4-ethenyl-8-fluoro-6-{8-fluoro-2-methylimidazo[1,2-a]pyridin-6-yl}-2-(piperidin-4-yl)isoquinolin-1-one] | < 0.1 µM | 0.1 to 1 µM |
| Cc1cn2nc(-c3ccc4c(=O)n(C5CCNCC5)ccc4c3)cc(-n3ccccc3=O)c2n1 [Compound 552, 6-[2-methyl-8-(2-oxo-1-pyridyl)imidazo[1,2-b]pyridazin-6-yl]-2-(4-piperidyl)isoquinolin-1-one] | 1 to 10 µM | > 10 µM |
| Cc1cn2nc(-c3ccc4c(=O)n(C5CCNCC5)ccc4c3)cc(-n3ccc(=O)cc3)c2n1 [Compound 551, 6-[2-methyl-8-(4-oxo-1-pyridyl)imidazo[1,2-b]pyridazin-6-yl]-2-(4-piperidyl)isoquinolin-1-one] | 0.1 to 1 µM | 0.1 to 1 µM |
| COC(=O)c1cc(-c2ccc3c(=O)n(C4CCNCC4)ccc3c2)nn2cc(C)nc12 [Compound 517, methyl 2-methyl-6-[1-oxo-2-(4-piperidyl)-6-isoquinolyl]imidazo[1,2-b]pyridazine-8-carboxylate] | 0.1 to 1 µM | 1 to 10 µM |
| CC(=O)Nc1cc(-c2cc(C)c3nc(C)cn3n2)cc2ccn([C@H]3CCNC3)c(=O)c12 [Compound 649, N-[6-(2,8-dimethylimidazo[1,2-b]pyridazin-6-yl)-1-oxo-2-[(3S)-pyrrolidin-3-yl]-8-isoquinolyl]acetamide] | 1 to 10 µM | > 10 µM |
| CCN1CCC(n2ncc3cc(-c4cc(C)c5nc(C)cn5n4)cc(F)c3c2=O)CC1 [Compound 537] | 0.1 to 1 µM | 0.1 to 1 µM |
| Cc1cn2nc(-c3cc(F)c4c(=O)n(C5CCN(CCF)CC5)ncc4c3)cc(C)c2n1 [Compound 538] | 0.1 to 1 µM | 0.1 to 1 µM |
| CN1CCC(c2ccc3c(=O)n(-c4ccc5nn(C)cc5c4)cnc3c2)CC1 [Compound 177] | > 10 µM | 1 to 10 µM |
| Cc1cn2nc(-c3ccc4c(=O)n(C5CCNCC5)ccc4c3)cc(C(=O)O)c2n1 [Compound 516, 2-methyl-6-[1-oxo-2-(4-piperidyl)-6-isoquinolyl]imidazo[1,2-b]pyridazine-8-carboxylic acid] | 1 to 10 µM | 1 to 10 µM |
| Cc1nc2c(C)cc(-c3ccc4c(=O)n(C5CCNC6(CC6)C5)ncc4c3)cc2o1 (stereo not shown) [Compound 513] | 1 to 10 µM | 1 to 10 µM |

| Compound | IC50 [1] | IC50 [2] |
| --- | --- | --- |
| Cc1cn2nc(-c3cc(N)c4c(=O)n([C@@H]5CCNC5)ccc4c3)cc(C)c2n1 [Compound 646, 8-amino-6-(2,8-dimethylimidazo[1,2-b]pyridazin-6-yl)-2-[(3R)-pyrrolidin-3-yl]isoquinolin-1-one] | 1 to 10 µM | > 10 µM |
| Cc1cn2nc(-c3cc(O)c4c(=O)n(C5CCN(C)CC5)ncc4c3)cc(C)c2n1 [Compound 543] | 0.1 to 1 µM | 0.1 to 1 µM |
| Cc1cn2nc(-c3ccc4c(=O)n(C5CCNCC5)ccc4c3)cc(CCO)c2n1 [Compound 533, 6-[8-(2-hydroxyethyl)-2-methyl-imidazo[1,2-b]pyridazin-6-yl]-2-(4-piperidyl)isoquinolin-1-one] | < 0.1 µM | 1 to 10 µM |
| Cc1cn2cc(-c3cc(F)c4c(=O)n([C@H]5CNC[C@@H]5F)ccc4c3)cc(F)c2n1 [Compound 644] | 1 to 10 µM | > 10 µM |
| Cn1cc2cc(-c3ncc4c(=O)n(C5CCNCC5)ccc4n3)c(O)c(F)c2n1 [Compound 1123] | < 0.1 µM | 0.1 to 1 µM |
| CC(=O)Nc1cc(-c2cc(C)c3nc(C)cn3n2)cc2ccn([C@@H]3CCNC3)c(=O)c12 [Compound 650, N-[6-(2,8-dimethylimidazo[1,2-b]pyridazin-6-yl)-1-oxo-2-[(3R)-pyrrolidin-3-yl]-8-isoquinolyl]acetamide] | > 10 µM | > 10 µM |
| COc1cc(-c2ccc3c(=O)n(C4CCNCC4)ccc3c2)nn2cc(C)nc12 [Compound 514, 6-(8-methoxy-2-methyl-imidazo[1,2-b]pyridazin-6-yl)-2-(4-piperidyl) isoquinolin-1-one; hydrochloride] | < 0.1 µM | < 0.1 µM |
| Cc1cn2nc(-c3ccc4c(=O)n(C5CCNCC5)ccc4c3)cc(C(N)=O)c2n1 [Compound 523, 2-methyl-6-[1-oxo-2-(4-piperidyl)-6-isoquinolyl]imidazo[1,2-b]pyridazine-8-carboxamide] | 1 to 10 µM | > 10 µM |
| Cc1cn2nc(-c3cc(F)c4c(=O)n(C5CCN(C)CC5)ncc4c3)cc(C)c2n1 [Compound 539] | < 0.1 µM | 0.1 to 1 µM |
| Cc1cn2cc(-c3cc(F)c4c(=O)n(C5CCNCC5)cnc4c3)cc(C#N)c2n1 [Compound 588] | 0.1 to 1 µM | 0.1 to 1 µM |
| COc1cccc(Oc2cc(-c3ccc4c(=O)n(C5CCNCC5)ccc4c3)nn3cc(C)nc23)c1 [Compound 547, 6-[8-(3-methoxyphenoxy)-2-methyl-imidazo[1,2-b]pyridazin-6-yl]-2-(4 piperidyl) isoquinolin-1-one] | < 0.1 µM | < 0.1 µM |
| Cc1cn2nc(-c3cc(O)c4c(=O)n(C5CCN(CCF)CC5)ncc4c3)cc(C)c2n1 [Compound 553] | 0.1 to 1 µM | 0.1 to 1 µM |
| Cc1cn2nc(-c3ccc4c(=O)n(C5CCNCC5)ccc4c3)cc(CO)c2n1 [Compound 525, 6-[8-(hydroxymethyl)-2-methyl-imidazo[1,2-b]pyridazin-6-yl]-2-(4-piperidyl) isoquinolin-1-one] | < 0.1 µM | 0.1 to 1 µM |
| Cc1cn2cc(-c3cc(F)c4c(=O)n(C5CC(C)NC(C)C5)ccc4c3)cc(F)c2n1 (stereo not shown) [Compound 651] | < 0.1 µM | 0.1 to 1 µM |
| CN(c1ccc2c(=O)n(-c3ccc4nn(C)cc4c3)cnc2c1)C1CCNCC1 [Compound 180] | > 10 µM | 1 to 10 µM |
| Cc1cn2nc(-c3ccc4c(=O)n(C5CCN(CCF)CC5)ncc4c3)cc(C)c2n1 [Compound 515] | 1 to 10 µM | 1 to 10 µM |
| Cc1cn2cc(-c3cc(F)c4c(=O)n([C@@H]5CNC[C@@H]5C)ccc4c3)cc(F)c2n1 [Compound 653, 8-fluoro-6-(8-fluoro-2-methyl-imidazo[1,2-a]pyridin-6-yl)-2-[(3S,4S)-4-methylpyrrolidin-3-yl]isoquinolin-1-one] | 1 to 10 µM | > 10 µM |
| Cc1cn2nc(-c3ccc4c(=O)n(C5CCNCC5)ccc4c3)cc(Oc3cccc(F)c3)c2n1 [Compound 545, 6-[8-(3-fluorophenoxy)-2-methyl-imidazo[1,2-b]pyridazin-6-yl]-2-(4-piperidyl)isoquinolin-1-one; hydrochloride] | < 0.1 µM | < 0.1 µM |
| COC(=O)Cc1cc(-c2ccc3c(=O)n(C4CCNCC4)ccc3c2)nn2cc(C)nc12 [Compound 527] | 0.1 to 1 µM | 1 to 10 µM |
